# Results published in publication PMC1082716, “Blockade of chemokine-induced signalling inhibits CCR5-dependent HIV infection in vitro without blocking gp120/CCR5 interaction” (Retrovirology, 2005).
# Entries after “also recorded” stand apart in the source; their conditions may differ.
# Experiments:
# [1] = system: CXCR4-dependent infection of Jurkat T cells; test: CXCR4-dependent HIV infection of Jurkat T cells (assay not specified); assay type: cell-based, HIV-1
# Method: HIV infection of Jurkat T-cells using the laboratory-adapted T-tropic isolate IIIb was monitored using two different assays. Firstly, Jurkat T-cells in 96-well plates were pre-treated with either Peptide 3, vehicle (as a negative control) or SDF1α (as a positive control) for 4 hours, then exposed to HIV virus (10^6 TCID50) and pulsed at 2–3 day intervals with Peptide 3, SDF1α or medium alone as appropriate. After two weeks in culture, the extent of viral infection was assayed by measuring the reverse transcriptase activity in the supernatant, as a measure of viral replication in the culture In six separate experiments, Peptide 3 (100 μM) had no effect on virus replication following HIV exposure (Fig 3a), while SDF1α inhibited reverse transcriptase activity by an average of 75%. […]
# HIV infection of Jurkat T-cells was also monitored by high sensitivity quantitative immunofluoresence detection of viral p24^gag expression. […] Expression of p24^gag was determined using quantitative immunofluoresence as previously described, except that the primary antibody was post-fixed to the section using paraformaldehyde to increase the sensitivity of the technique (see Methods). Viral infectivity was expressed as the number of cells stained for p24^gag expressed as a proportion of the total number of cells (detected using Hoechst 33342 nuclear dye). […]
# chemokine receptors = conditions: ref [27]; cited from earlier work
# HIV strain MN = test: HIV (MN) infection of THP-1 cells, p24gag immunofluorescence; assay type: cell-based, HIV-1; conditions: Peptide 3 100 μM
# Method: However, it was possible to assess HIV infectivity of THP-1 cells using high sensitivity immunofluorescent detection of p24^gag. THP-1 cells were differentiated with hydrocortisone and PMA, then treated with TNFα, resulting in adherent monolayers on glass chamber slides. The THP-1 cells were then treated with either Peptide 3 (100 μM), MIP1α (100 ng/ml) or SDF1α (100 ng/ml) as for the Jurkat cells. THP-1 cells were infected with HIV strain MN at a concentration previously validated to produce easily detectable infection and grown for 72 h prior to fixation and staining for p24^gag. In contrast to the findings with HIV strain IIIb infection of Jurkat T cells, Peptide 3 inhibited infection of THP-1 cells by more than 80% (Fig 3c), very similar to the effect of MIP1α.
# THP-1 cells were differentiated prior to infection with hydrocortisone and PMA in 8-well chamber slides. Sixteen hours prior to infection, TNFα was added (100 ng/ml). Twelve hours later, the medium was aspirated and replaced with fresh medium containing the test peptides or chemokines as appropriate. After a further four hours, virus from the frozen stocks was adeed to the cells, which were the processed for immunofluoresence between 28 h and 72 h after infection.
# Jurkat cells following HIV infection were attached to 8-well chamber slides (Becton-Dickinson) by spinning the slides using a plate rotor in a Labofuge centrifuge (Heraeus) at 3,000 × g for 5 minutes. Attached Jurkat cells or THP-1 cells were then fixed by dipping the slides into ice-cold 70% ethanol for 90 seconds. Non-specific binding was blocked by incubation with 3% fatty acid-free BSA in TBS for 1 hour at room temprature. Cells were incubated with the mouse monoclonal anti-HIV-1 p24^gag antibody EH12E1 (ref 38;AIDS Reagent Program, NIBSC) at 10 μg/ml in 3% BSA in TBS at room temperature overnight. Unbound antibody was removed with 3 × 3 min washes in PBS, and bound antibody was then fixed to the slide by incubation with 3.8% phosphate buffered formalin pH7.2 for 10 mins at room temperature, followed by 3 further 3 min washes in PBS. Bound antibody was visualised using donkey anti-mouse IgG FITC conjugate (715-095-150; Jackson Immunoresearch) at 30 μg/ml in 3% BSA/TBS + 1 ng/ml Hoescht 33342 for 6 hours at room temperature. Twelve fields of view (100× magnification) were captured from each well of the chamber slide using an Olympus Provis AX electronic microscope connected to a Power Macintosh 8500, running OpenLab image analysis software (Improvision), under both FITC illumination conditions (NIBA filter block; λex = 470–490 nm, dichroic mirror = 505 nm, λem = 515–550 nm) and UV illumination conditions (Chroma 31000; λex = 340–380 nm, dichroic mirror = 400 nm, λem = 435–485 nm). Images were acquired with a Hamamatsu C4742-05 monochrome digital camera with 10-bit depth in a 1280-1024 pixel field connected to a DIG Snapper frame grabber. The exposure time, amplifier gain and offset values were controlled by the OpenLab software and were held constant throughout the experiment. A background (an image captured without a slide under the objective) was digitally subtracted from every image. A threshold was then applied to each image which was the lowest threhold that detected <1% of the pixels of an image of uninfected cells stained under identical conditions. The number of objects exceeding this threshold in each field of view were counted. […]
sequence,measurement,setting,value
EICADPKQKWVQ [Peptide 3],Effect on CXCR4-dependent HIV infection of Jurkat T cells,[1],did not affect; also recorded: no effect
same,Effect on binding of chemokine ligands to the receptors,chemokine receptors,do not block
same,Effect on HIV infection of THP-1 cells (in words),"HIV strain MN; HIV strain MN, MIP1α 100 ng/ml, SDF1α 100 ng/ml, 72 h, p24gag immunofluorescence",powerfully inhibited; also recorded: blocked
same,Inhibition of infection of THP-1 cells (p24gag),"HIV strain MN; HIV strain MN, differentiated THP-1 (hydrocortisone, PMA, TNFα), grown for 72 h prior to fixation, 12 fields of view",more than 80%
same,Inhibition of CCR5 mediated HIV infection of THP-1 cells,"HIV strain MN; assayed by immunofluoresence staining, HIV MN, 72 h, p24gag",83 ± 7%
